Article PMC11678797, “A Repurposed Drug Selection Pipeline to Identify CNS-Penetrant Drug Candidates for Glioblastoma” (Pharmaceuticals, 2024)
Like-named read-outs stand apart in the source and are kept apart here.

Assay: Pharmacokinetics of omacetaxine in orthotopic glioblastoma PDX and naïve NOD/SCID mice (LC-MS/MS of plasma, brain, liver)
Assay type: in vivo, mouse
Protocol: An amount of 10 μL medium samples was vortex-mixed with 30 μL of acetonitrile: formic acid (100:1 v/v) containing 100 nM RO-3306 Internal Standard). After centrifugation, the supernatant was 5-fold diluted in water. OMA concentrations were measured using an LC-MS/MS system that consisted of an UltiMate 3000 LC System (Dionex, Sunnyvale, CA, USA) and an API 4000 mass spectrometer (Sciex, Framingham, MA, USA). Samples were analyzed using a ZORBAX Extend-C18 column (Agilent, Santa Clara, CA, USA), preceded by a Security-guard C18 pre-column (Phenomenex, Utrecht, The Netherlands). Elution was performed using a mixture of mobile phase A (0.1% formic acid in water (v/v)) and mobile phase B (methanol) in a 5 min gradient from 20% to 95% B, followed by 95% B that was maintained for 3 min and then re-equilibrated at 20% B. Multiple reaction monitoring parameters were 546.6/298.1 (OMA) and 352.1/186.0 (RO-3306).
Non-obese diabetic severe combined immunodeficient (NOD/SCID) female mice 6–8 weeks of age were used for this study. All experiments were ethically approved by the local Animal Experiments Committee. Patient-derived glioblastoma cell lines were cultured under serum-free conditions prior to injection into the mice. Mice were stereotactically injected with GS607, GS832 (both 2.5 × 10^5 in 5 μL) or GBM8 (1 × 10^5 in 3 μL) in the right striatum 1.0 mm anteroposterior (AP), 2.0 mm medio lateral (ML) and −2.5 mm dorsal ventral (DV) of bregma suture under aseptic conditions. Mice were monitored daily for signs of persistent abnormal behavior and/or breathing, weight loss >20% and development of neurological symptoms such as convulsions, seizures and/or hemiparesis. Mice were euthanized and the mouse brains harvested for histological and LC/MS/MS analysis.
A single dose of 1.5 mg/kg of OMA was administered s.c. to glioblastoma-bearing NOD/SCID and naïve non-tumor-bearing mice. Mice received OMA prior to the timepoint drug delivery experiment, ensuring the presence of significant tumor masses. For GS607, this was at 78 days; for GS832 at 90 days; and for GBM8 at 46 days post-tumor implantation, based on previous survival experiments. Blood samples were collected at 15 min, 30 min, 60 min, 120 min and 240 min via the tail vein and/or submandibular vein and placed in EDTA tubes. Mice were euthanized at 60 min, 120 min or 240 min with cervical dislocation. Brains and livers were surgically collected and snap-frozen in liquid nitrogen (N2). To preserve the drug stability in plasma mouse blood, samples were centrifuged immediately upon collection. Plasma was separated by centrifugation at 3500 rpm at 4 °C for 15 min. Both plasma and tissue samples were stored at −80 °C until LC-MS/MS analysis.

[1] = GBM8 PDX, 60 min, single s.c. dose 1.5 mg/kg, n = 6, 1.5 mg/kg
[2] = GS607-PDX, 60 min, single s.c. dose 1.5 mg/kg, n = 2 blood samples, 1.5 mg/kg
[3] = GS607-PDX, 60 min, single s.c. dose 1.5 mg/kg, n = 4, 1.5 mg/kg
[4] = GS832-PDX, 60 min, single s.c. dose 1.5 mg/kg, n = 5, 1.5 mg/kg
[5] = GS832-PDX, single s.c. dose 1.5 mg/kg

- [Brain] ± SD, right hemisphere (tumor bearing) [1]: 45.0 ± 20.0 ng/g
- [Liver] ± SD [1]: 998.2 ± 254.3 ng/g
- [Plasma] ± SD [1]: 391.3 ± 57.5 ng/mL
- [Brain]/[Plasma] Ratio ± SD (GBM8 PDX, 60 min, single s.c. dose 1.5 mg/kg, 1.5 mg/kg): 0.11 ± 0.04
- [Brain]/[Plasma] Ratio ± SD [2]: 0.23 ± 0.01
- [Plasma] ± SD [2]: 88.4 ± 9.0 ng/mL
- [Brain] ± SD, right hemisphere (tumor bearing) [3]: 20.7 ± 5.05 ng/g
- [Liver] ± SD [3]: 1653.4 ± 163.6 ng/g
- [Plasma] ± SD (GS832-PDX NOD/SCID mice, single s.c. dose 1.5 mg/kg, 15 min (Table 1), 1.5 mg/kg): 396.3 ± 58.7 ng/mL
- [Plasma] ± SD (GS832-PDX NOD/SCID mice, single s.c. dose 1.5 mg/kg, 60 min (Table 1, n = 9), 1.5 mg/kg): 165.7 ± 28.7 ng/mL
- [Plasma] ± SD (GS832-PDX NOD/SCID mice, single s.c. dose 1.5 mg/kg, 240 min (Table 1), 1.5 mg/kg): 23.9 ± 2.86 ng/mL
- [Brain] ± SD, right hemisphere (tumor bearing) [4]: 18.0 ± 6.3 ng/g
- [Liver] ± SD [4]: 680.0 ± 155.9 ng/g
- [Brain]/[Plasma] Ratio ± SD (GS832-PDX, 60 min, single s.c. dose 1.5 mg/kg, 1.5 mg/kg): 0.10 ± 0.05
- [Liver] ± SD (GS832-PDX, 240 min, single s.c. dose 1.5 mg/kg, n = 5, 1.5 mg/kg): 190.1 ± 47.8 ng/g
- [Brain]/[Plasma] Ratio ± SD (GS832-PDX, 240 min, single s.c. dose 1.5 mg/kg, 1.5 mg/kg): 0.50 ± 0.33
- brain total mean concentration lower than in the liver [5]: approximately 40 fold
- concentrations in tumor-bearing hemisphere versus contralateral hemisphere [5]: not significantly different
- reduction in plasma concentration from peak (15 min) by 4 h (GS832 tumor-bearing mice, single s.c. dose 1.5 mg/kg): 17 fold
- OMA concentrations in tumor-bearing versus contralateral hemispheres (any of the tested models (GS832, GS607, GBM8)): did not detect a significant difference
- concentration at 60 min (female, NOD/SCID, mouse, brain tumor, sc, 1.5 mg/kg, GBM8 PDX, 60 min, single s.c. dose 1.5 mg/kg, read-out: measured brain tumor concentration expressed): 82.5 nM
- concentration at 60 min (female, NOD/SCID, mouse, brain tumor, sc, 1.5 mg/kg, GS607-PDX, 60 min, single s.c. dose 1.5 mg/kg, read-out: measured brain tumor concentration expressed): 37.9 nM
- concentration at 60 min (female, NOD/SCID, mouse, brain tumor, sc, 1.5 mg/kg, GS832-PDX, 60 min, single s.c. dose 1.5 mg/kg, read-out: measured brain tumor concentration expressed): 33 nM
- concentration at 60 min (female, NOD/SCID, mouse, brain, right hemisphere (non-tumor-bearing), sc, 1.5 mg/kg, naïve non-tumor-bearing mice, 60 min, single s.c. dose 1.5 mg/kg, n = 2, read-out: [Brain] ± SD, right hemisphere (non-tumor-bearing)): 16.4 ± 2.9 ng/g
- concentration at 60 min (female, NOD/SCID, mouse, brain, right hemisphere (tumor bearing), sc, 1.5 mg/kg, GBM8 PDX, 60 min, single s.c. dose 1.5 mg/kg, n = 6, read-out: [Brain] ± SD, right hemisphere (tumor bearing)): 45 ± 20 ng/g
- concentration at 60 min (female, NOD/SCID, mouse, brain, right hemisphere (tumor bearing), sc, 1.5 mg/kg, GS607-PDX, 60 min, single s.c. dose 1.5 mg/kg, n = 4, read-out: [Brain] ± SD, right hemisphere (tumor bearing)): 21 ± 5 ng/g
- concentration at 60 min (female, NOD/SCID, mouse, brain, right hemisphere (tumor bearing), sc, 1.5 mg/kg, GS832-PDX, 60 min, single s.c. dose 1.5 mg/kg, n = 5, read-out: [Brain] ± SD, right hemisphere (tumor bearing)): 18 ± 6 ng/g
- concentration at 120 min (female, NOD/SCID, mouse, brain, right hemisphere (tumor bearing), sc, 1.5 mg/kg, GS832-PDX, 120 min, single s.c. dose 1.5 mg/kg, n = 5, read-out: [Brain] ± SD, right hemisphere (tumor bearing)): 20.8 ± 16.9 ng/g
Structure (SMILES): COC(=O)C[C@](O)(CCCC(C)(C)O)C(=O)O[C@@H]1C(OC)=C[C@]23CCCN2CCc2cc4c(cc2[C@H]13)OCO4 [OMA, Omacetaxine mepesuccinate]
